Values of other authors in US20080161385A1, “Composition Inhibiting Sex Hormone-Binding Globulin” (FUJI OIL COMPANY, LIMITED, priority 2004, published 2008).

Test system: SHBG
Conditions: cell test, literature

O=c1c(-c2ccc(O)cc2)coc2cc(O)cc(O)c12 [genistein]
Production of SHBG: stimulates production of SHBG
